Laboratory results reported in patent US11160843B2, “Oxytocin and opioid antagonists for treatment of social dysfunction disorder” (YALE UNIVERSITY, priority 2018, dated 2021).

How the values were obtained:
[1] = test system: rhesus macaques (Macaca mulatta); assay: Live gaze interaction task (social attention to a conspecific); type: in vivo; conditions: for attention to the conspecific (looking at the eyes) following mutual eye contact, compared with SAL: 0.5-3 s after mutual eye contact, permutation test, OTNAL P<0.01, OT, NAL both P>0.05
Experimental: Nine adult rhesus macaques (Macaca mulatta) were selected for study. The animals (six males and three females) were all housed together in a colony in either pairs or triads. Each animal was kept on a 12-h light/dark cycle and had access to food 24 h each day with controlled access to water during testing. Before testing began, each monkey received a surgically implanted head post (Crist Instruments, Gray Matter Research) for restraining its head while tracking eye positions. At the time of surgery, anesthesia was induced with ketamine hydrochloride (10 mg/kg i.m.) and maintained with isoflurane (1.0-3.0%, to effect). Aseptic procedures were used, and heart rate, respiration rate, blood pressure, expired CO2, and body temperature were monitored throughout the procedure. Monkeys were allowed an additional 30-40 d of recovery after the implant surgery.
All of the tested subjects received pharmacological manipulations through a pediatric nebulizer (PARI Baby Nebulizer; PARI Respiratory Equipment) with a cone-shaped facemask. The facemask, designed for canine anesthesia, was fitted entirely over the muzzle area, and the subject breathed freely through the nose for the duration of the dose administration. Before experimental sessions, monkeys were first incrementally habituated to the facemask and then to the nebulizer until they were completely relaxed during the procedure, which typically took about 3-5 d. […]
Gaze calibration procedures for studying dyadic gaze interactions reported by Dal Monte, et al., 2016, J. Neurophysiol. […] For analysis purposes, the location was determined where the animal was looking on a theoretical screen located further from the actual screen on which the animal was calibrated. With trigonometric corrections, the ROIs were identified and matched based on individual measurements of each monkey's face to the dimension of fixations as measured from the calibration screen. […]
Two animals sat in front of each other with no task constraints while the eye positions of both animals were recorded simultaneously and continuously (FIG. 1A). […]

social partners = conditions: background statement; cited from earlier work
[2] = test system: rhesus macaques (Macaca mulatta); assay: NAL dose-response curve, free-viewing task (fixation frequency to face images); type: in vivo; conditions: intranasal NAL 0.5, 1, 2 mg via nebulizer, P<0.001 for 1 mg over 2 mg and over 0.5 mg
From the text: All of the tested subjects received pharmacological manipulations through a pediatric nebulizer (PARI Baby Nebulizer; PARI Respiratory Equipment) with a cone-shaped facemask. The facemask, designed for canine anesthesia, was fitted entirely over the muzzle area, and the subject breathed freely through the nose for the duration of the dose administration. Before experimental sessions, monkeys were first incrementally habituated to the facemask and then to the nebulizer until they were completely relaxed during the procedure, which typically took about 3-5 d. This habituation procedure was performed with saline (SAL). During both the habituation phase and the testing phase, the animals' heads were restrained to minimize movement and enhance administration reliability. Each of the different pharmacology manipulations tested was diluted to a volume of 2 mL using sterile SAL and was administered over the course of 8-10 min. In addition, experimental sessions were conducted at the same time of day to control for diurnal fluctuations. […]
On the day of the experiment, monkeys were transported in a primate chair from the colony room to the experimental room. […] During the 15-s period, monkeys were free to explore, or not explore, each face presented while an infrared eye-tracking camera continuously recorded their eye positions (Eyelink; SR Research). […]

Row | Structure (SMILES) | attention to the conspecific (looking at the eyes) following mutual eye contact, compared with SAL [1] | solicitation for social contact, such as grooming and proximity (social partners) | frequency of fixations to the eyes, normalized by SAL [2] | frequency of fixations to faces, normalized by SAL ([2]; inverted U-shaped curve) | frequency of fixations to the eyes of a conspecific, normalized by SAL ([1]; OT 24 IU, NAL 1 mg, intranasal, P=0.004 OTNAL over SAL, P=0.069 over NAL, P=0.022 over OT, OT over SAL P=0.059 (marginal)) | physical contact between social partners (social partners)
1 | C=CCN1CC[C@]23c4c5ccc(O)c4O[C@H]2C(=O)CC[C@@]3(O)[C@H]1C5 [NAL, naloxone] | neither OT nor NAL administered alone had a significant effect | increases solicitation for social contact | maximal effect again clearly occurred following the 1-mg dose | maximal effects clearly occurred following the 1-mg dose |  | 
2 | CC[C@H](C)[C@@H]1NC(=O)[C@H](Cc2ccc(O)cc2)NC(=O)[C@@H](N)CSSC[C@@H](C(=O)N2CCC[C@H]2C(=O)N[C@@H](CC(C)C)C(=O)NCC(N)=O)NC(=O)[C@H](CC(N)=O)NC(=O)[C@H](CCC(N)=O)NC1=O [OT, 1-({(4R,7S,10S,13S,16S,19R)-19-amino-7-(2-amino-2-oxoethyl)-10-(3-amino-3-oxopropyl)-16-(4-hydroxybenzyl)-13-[(1S)-1-methylpropyl]-6,9,12,15,18-pentaoxo-1,2-dithia-5,8,11,14,17-pentaazacycloicosan-4-yl}carbonyl)-L-prolyl-L-leucylglycinamide] | neither OT nor NAL administered alone had a significant effect |  |  |  | overall increased fixations to the eyes compared with SAL | 
3 | CN1CC[C@]23c4c5ccc(O)c4O[C@H]2[C@@H](O)C=C[C@H]3[C@H]1C5 [morphine] |  |  |  |  |  | decrease physical contact between social partners
